For assay [1], the system named is muscle atrophy animal model (dexamethasone). Put plainly: Muscle mass of dexamethasone-treated mice given sitagliptin or GLP-1(32-36)amide (Example 3-1). In kind it is in vivo, C57BL/6J male mice. As to conditions: dexamethasone 20 mg/kg i.p.; sitagliptin 300 mg/kg oral gavage, GLP-1(32-36)amide 5 μg/kg i.p.; FIG. 7. Here is the method: (§1) The present inventors treated C57BL/6J male mice (n=10/group) with dexamethasone (20 mg/kg/i.p.) to reduce muscles of the mice, and they examined effects of sitagliptin (300 mg/kg/oral gavage) and GLP-1(32-36)amide (5 μg/kg/i.p.) on the body weights and muscles of the mice.

For assay [2] the test system is unchanged. Put plainly: Grip strength of dexamethasone-treated mice given sitagliptin or GLP-1(32-36)amide (Example 3-2). The assay is classed as in vivo, C57BL/6J male mice. The settings on record: dexamethasone 20 mg/kg i.p.; sitagliptin 300 mg/kg oral gavage, GLP-1(32-36)amide 5 μg/kg i.p.; FIG. 8. Here is the method:
The present inventors treated C57BL/6J male mice (n=10/group) with dexamethasone (20 mg/kg/i.p.) to reduce muscles of the mice, and they examined effects of sitagliptin (300 mg/kg/oral gavage) and GLP-1(32-36)amide (5 μg/kg/i.p.) on the body weights and muscles of the mice. In detail, the grip strength when all of the paws of the mouse of Example 6 were pulled with the same force was measured by a grip strength machine.

Assay [3] deals with myostatin and MyoD. Put plainly: Myostatin and MyoD expression in dexamethasone-treated mice given sitagliptin or GLP-1(32-36)amide (Example 3-3). In kind it is in vivo, C57BL/6J male mice. The settings on record: dexamethasone 20 mg/kg i.p.; sitagliptin 300 mg/kg oral gavage, GLP-1(32-36)amide 5 μg/kg i.p.; FIG. 9. The protocol:
The present inventors treated C57BL/6J male mice (n=10/group) with dexamethasone (20 mg/kg/i.p.) to reduce muscles of the mice, and they examined effects of sitagliptin (300 mg/kg/oral gavage) and GLP-1(32-36)amide (5 μg/kg/i.p.) on the body weights and muscles of the mice. Therefore, the present inventors examined a change in the expression level of myostatin, which is a cause of muscle atrophy, and a change in the expression level of the muscle-producing factor MyoD by sitagliptin and GLP-1(32-36)amide.

Assay [4] deals with muscle atrophy animal model (dexamethasone). Put plainly: Body weight of dexamethasone-treated mice given sitagliptin or GLP-1(32-36)amide (Example 3-1). The assay is classed as in vivo, C57BL/6J male mice. As to conditions: dexamethasone 20 mg/kg i.p.; sitagliptin 300 mg/kg oral gavage, GLP-1(32-36)amide 5 μg/kg i.p.; FIG. 6. The protocol: as §1
Assay [5] has as its system dexamethasone-induced muscle atrophy or sarcopenia mice. Nature of the assay: Muscle mass of dexamethasone-treated mice given long-acting GLP-1(7-36) (Example 2-3). The assay is classed as in vivo, male C57BL6J mice. The settings on record: dexamethasone 20 mg/kg i.p., Trulicity 1 mg/kg, PB1023 3 mg/kg s.c.; for total muscle mass: after three weeks, vs Dex-vehicle group, FIG. 12A. The protocol: (§2) Specifically, 10-week-old male C57BL6J mice were divided into 10 mice per group (total n=40), and saline and dexamethasone (20 mg/kg) were each intraperitoneally administered to the control and experimental groups each day. The grip strength of the mice was measured on day 9.
(§3) Subsequently, on day 11, the control mice were administered with saline three times per week by subcutaneous injection (Co-vehicle group), whereas the comparative mice were administered with either (i) saline three times per week by subcutaneous injection (Dex-vehicle group), (ii) Trulicity (SEQ ID NO: 5) two times per week by subcutaneous injection (1 mg/kg; Trulicity group), or (iii) PB1023 three times per week by subcutaneous injection (3 mg/kg; PB1023 group).
(§4) Thereafter, the grip strength was measured and a four limb hanging test was performed on day 14, and tissue sampling was performed on day 22.

For assay [6] the test system is unchanged. Nature of the assay: Grip strength of dexamethasone-treated mice given long-acting GLP-1(7-36) (Example 2-2). In kind it is in vivo, male C57BL6J mice. As to conditions: dexamethasone 20 mg/kg i.p., Trulicity 1 mg/kg s.c. two times per week, PB1023 3 mg/kg s.c. three times per week, after two weeks, FIGS. 11A and 11B. The protocol:
as §2, §3, §4

Assay [7] concerns muscle atrophy-induced mice (dexamethasone). Nature of the assay: Grip strength of muscle atrophy-induced mice treated with exendin-4 (Example 1-3). The assay is classed as in vivo, C57BL/6J male mice. As to conditions: exendin-4 100 ng/mouse i.p. 12 days following dexamethasone 200 mg/kg i.p. 8 days; FIG. 3. Here is the method: (§5) In detail, control mice which were not administered with dexamethasone or exendin-4, mice in which muscle atrophy was induced by intraperitoneal injection of dexamethasone (200 mg/kg) for 8 days, comparative mice which were intraperitoneally injected with exendin-4 (100 ng/mouse) for 12 days, and mice in which muscle atrophy was treated by intraperitoneal injection of exendin-4 (100 ng/mouse) for 12 days following intraperitoneal injection of dexamethasone (200 mg/kg) for 8 days were prepared. While these mice were raised for 20 days, changes in their body weights were measured (FIG. 1).
The control mice (control), dexamethasone-induced muscle atrophy mice, exendin-4-treated comparative mice, and muscle atrophy-treated mice treated with exendin-4 following treatment of dexamethasone, which were prepared in Example 1-1, were subjected to measurement of grip strength to investigate whether muscle functions were recovered (FIG. 3). In this regard, a force measured by a grip strength machine when all of the paws of a mouse were pulled with the same force was considered as the grip strength.

The test system is the same in assay [8]. Put plainly: Body weight of dexamethasone-induced muscle atrophy mice treated with exendin-4 (Example 1-1). In kind it is in vivo, C57BL/6J male mice. As to conditions: exendin-4 100 ng/mouse i.p. 12 days following dexamethasone 200 mg/kg i.p. 8 days; vs dexamethasone alone; from day 11; FIG. 1. The protocol: It is known that muscle atrophy is caused by chronic diseases (chronic renal failure, chronic heart failure, chronic obstructive disease, etc.), and caused by administration of a high dose of a drug such as dexamethasone. Thus, animal models (C57BL/6J male mice) were treated with dexamethasone to prepare sarcopenia models. When sarcopenia occurred, effects of exendin-4 were investigated.
as §5

For assay [9], the system named is myostatin, atrogin-1, and MuRF1 in C2C12 myocytes. Put plainly: Expression of muscle atrophy-related genes in dexamethasone-treated C2C12 myocytes (Example 1-5). As to conditions: 20 nM exendin-4 6 hours following 1 μM dexamethasone 12 hours, FIG. 5. In kind it is cell-based. The protocol: A myoblast cell line C2C12 was differentiated into myocytes by culturing in a medium containing 2% (v/v) horse serum for 5 days. Control myocytes (control) prepared from the differentiated myocytes without any treatment, myocytes in which muscle atrophy symptoms were induced by treatment of 1 μM dexamethasone for 12 hours, comparative myocytes treated with 20 nM exendin-4 for 6 hours, and experimental myocytes in which muscle atrophy symptoms were treated with 20 nM exendin-4 for 6 hours following treatment of 1 μM dexamethasone for 12 hours were each prepared. Expression levels of muscle atrophy-related genes (myostatin, atrogin-1, and MuRF1) were compared in each of the myocytes (FIG. 5).

In assay [10] the test system is myostatin, atrogin-1, MuRF1, MyoD and myogenin genes. Nature of the assay: Expression of muscle protein-destroying and -producing genes in muscle tissue, PCR (Example 1-4). The assay is classed as in vivo, C57BL/6J male mice. The settings on record: exendin-4 following dexamethasone, FIG. 4. Here is the method:
as §5
It is known that when muscle atrophy occurs, expression of muscle protein-destroying genes (myostatin, atrogin-1, and MuRF1) is increased and expression of muscle protein-producing genes (MyoD and myogenin) is decreased; thus, this was to be examined That is, muscle tissues were removed from the control mice (control), dexamethasone-induced muscle atrophy mice, exendin-4-treated comparative mice, and muscle atrophy-treated mice treated with exendin-4 following treatment of dexamethasone, which were prepared in Example 1-1, and total RNAs were obtained from the muscle tissues. cDNAs were synthesized therefrom, each gene was amplified from the synthesized cDNA by PCR, and changes in the expression levels thereof were compared (FIG. 4).

The test system of assay [11] is muscle atrophy-induced mice (dexamethasone). Nature of the assay: Skeletal muscle weights of muscle atrophy-induced mice treated with exendin-4 (Example 1-2). In kind it is in vivo, C57BL/6J male mice. The settings on record: exendin-4 100 ng/mouse i.p. 12 days following dexamethasone 200 mg/kg i.p. 8 days; FIG. 2. The protocol: as §5
The control mice (control), dexamethasone-induced muscle atrophy mice, exendin-4-treated comparative mice, and muscle atrophy-treated mice treated with exendin-4 following treatment of dexamethasone, which were prepared in Example 1-1, were sacrificed, and total weights of the skeletal muscles of the respective mice were measured. Quadratus muscles, gastrocnemus muscles, tibialis anterior muscles, soleus muscles, and extensor digitorum longus muscles constituting the skeletal muscles were each separated, and their weights were compared (FIG. 2).

Entries after “also recorded” stand apart in the source; their conditions may differ. Ends that are not written are not given here.

With `N[C@@H](CC(=O)N1CCn2c(nnc2C(F)(F)F)C1)Cc1cc(F)c(F)cc1F` [sitagliptin], in [1], the muscle mass result is “increased”. Also, the grip strength entry in [2] is “increased again”. Also, in [3], the MyoD expression entry was “increased again” and the myostatin expression entry is given as “decreased again”. The body weight result in assay [4] is recorded as “increased”.
With GLP-1(32-36)amide (LVKGR-NH2), the muscle mass entry in assay [1] is “increased”. Also, in [2], the grip strength entry is “increased again”. In addition, in assay [3], the MyoD expression result is “increased again” and the myostatin expression result is on record as “decreased again”. Also, the body weight entry in assay [4] is listed as “increased”.
As for dulaglutide [Trulicity], the “muscle mass of EDL (Extensor digitorum longus) and QD (Quadratus)” value in assay [5] (B to F of FIG. 12) is “statistical significance was confirmed by an increase in muscle mass”. Besides, the “muscle mass of TA (Tibialis anterior), Sol (Soleus), and GA (Gastrocnemius)” value in [5] (B to F of FIG. 12) is “tendency of increasing muscle mass”. For the same compound, the figures for the total muscle mass entry in [5] and in assay [5] (listed as dulaglutide) were “significantly increased compared to the Dex-vehicle group” and “muscle mass was increased”, respectively. The grip strength result in assay [6] is reported as “improved to a significant level”; in assay [6] (listed as dulaglutide), “enhanced”.
Turning to exendin-4, in assay [7], the grip strength entry is “remarkably higher level of grip strength than the muscle atrophy-induced mice; also recorded: reduced grip strength was restored”. Moreover, in assay [8], the body weight entry was “increase in the body weight was observed; also recorded: reduced body weight was restored”. For the same compound, the “expression levels of muscle atrophy-related genes (myostatin, atrogin-1, and MuRF1)” value in [9] is reported as “remarkably decreased expression levels”. Also, in assay [10], the “relative expression levels of muscle protein-destroying genes (myostatin, atrogin-1, and MuRF1)” value is “lowest relative expression levels; also recorded: decreased”; the “relative expression levels of muscle protein-producing genes (MyoD and myogenin)” value was “highest relative expression levels; also recorded: increased”. Besides, the “skeletal muscle mass (all kinds of skeletal muscles)” value in assay [11] is recorded as “increased muscle mass similar to that of the control or comparative group; also recorded: reduced skeletal muscle mass was restored”.

The record behind these values is patent US10993993B2, “Pharmaceutical composition for treating muscle atrophy or sarcopenia including glucagon-like peptide (GLP-1) or GLP-1 receptor agonist” (IMMUNOFORGE CO., LTD., priority 2015, dated 2021).
